Assay results taken from patent US20030158245A1, “Fused heterocyclic derivatives, their production and use” (priority 2000, published 2003).

Experiments:
[1] = test system: Chondromodulin-I (ChM-I) mRNA; test: Assay of Chondromodulin-I (ChM-I) mRNA by RT-PCR in ATDC5 cells; format: cell-based, mouse; conditions: 10^−6 M test compound; ATDC5 cells cultured 7 days; density of ChM-I band determined by bioimaging; no test compound added = 0
Method: Assay of Chondromodulin-I (ChM-I) mRNA:
ATDC5, a substrain derived from mouse teratocarcinoma cell line AT805, was used. ATDC5 cells were cultured at 37° C. for 7 days in the presence of the test compound using a 1:1 mixed medium of Dulbecco's modified Eagle's medium/Ham's F-12 medium containing 5% heat-inactivated fetal bovine serum and 20 μg/ml gentamycin under a condition of 5% carbon dioxide and 95% air. After the cultivation was completed, cells were collected, from which RNA was recovered by using an RNeasy mini kit (manufactured by Quiagen Company), followed by DNAase treatment using MessageClean Kit (manufactured by Genhunter Company) to obtain the total RNA. The amount of ChM-I mRNA in the total RNA was determined by the RT-PCR method. First, cDNA was synthesized from the RNA preparation by reverse transcription reaction using TaKaRa PCR Kit (AMV) ver. 2.1 and random 9-mers (manufactured by Takara Shuzo Co., Ltd.) according to the instruction for the kit. Next, ChM-I gene was amplified specifically by using HotStarTaq DNA polymerase (manufactured by Quiagen company). The following primers were used for the amplification of ChM-I gene: […]
The amplification reaction was carried out in a GeneAmp PCR System 2400 (manufactured by Perkin Elmer Inc.) after warming at 95° C. for 15 minutes, which was followed by 32 repeating reaction cycles of 95° C. for 20 seconds, 58° C. for 10 seconds and 72° C. for 30 seconds. The thus-obtained PCR product was separated by electrophoresis on 2% agarose gel containing ethidium bromide, and the fluorescence intensity of the DNA fragment, which appeared by ultraviolet irradiation at the location corresponding the size (212 bp) expected from the base sequence of mouse ChM-I, was determined. The activity of the test compound to enhance ChM-I expression is expressed as the density of ChM-I band as determined by bioimaging (Table 49). […]

[2] = test system: interstitial cells prepared from the bone marrow of the femur of normal rats; test: Action to promote osteogenesis: alkaline phosphatase activity in bone marrow interstitial cells; format: cell-based, Sprague-Dawley rats; parameters: dose or concentration left out as unconfirmed; conditions: rat bone marrow interstitial cells, compound added from day 2 for 5 days; mean ± S.E. (n = 4); all **p<0.01 vs. control
Method: Action to Promote Osteogenesis:
The action was determined in interstitial cells prepared from the bone marrow of the femur of normal rats by using alkaline phosphatase activity as the measure for osteogenesis. In other words, interstitial cells were prepared from the bone marrow of the femur of 7-week old male Sprague-Dawley rats according to the method of Maniatopoulos et al. [Cell Tissue Research, vol. 254, p. 317 (1988)], and cultivated in α-MEM (minimum essential medium) containing dexamethasone (10^−7 M) and β-glycerophosphoric acid (10^−2 M) to facilitate formation of the calcified osteoid tissue. After one week, the primary culture cells that reached the confluence were recovered by treating with a solution containing 0.25% trypsin and 0.2% EDTA and were subcultured in culture plates at a cell density of […] (day 0 of the cultivation). […] After the cells were washed with a phosphate buffer solution, 0.2% Nonidet P-40 was added to the cells, which were homogenized and centrifuged at 3000 rpm for 10 minutes, and the supernatant was subjected to the determination of alkaline phosphatase activity according to the method of Lowry et al. [Journal of Biological Chemistry, vol. 207, p. 19 (1954)]. Student's t-test was used for the statistical treatment.

| Compound | melting point | ChM-I expression-enhancing activity [1] | Alkaline phosphatase activity (A405) [2] |
| --- | --- | --- | --- |
| CC(C)(C)OC(=O)c1sc(Nc2ccc(Cl)cc2)c2c1CCc1cnoc1-2 [Example 3, 8-(4-Chlorophenylamino)-4,5-dihydrothieno[3,4-g]-1,2-benzisoxazole-6-carboxylic Acid t-butyl Ester] | 197 to 198 °C | – | – |
| CC(C)(C)OC(=O)c1sc(Nc2ccccc2)c2c1CCc1cnoc1-2 [Example 4, 4,5-Dihydro-8-phenylaminothieno[3,4-g]-1,2-benzisoxazole-6-carboxylic Acid t-butyl Ester] | 148 to 149 °C | – | – |
| O=C(O)c1sc(N(C(=O)OCc2ccccc2)c2ccccc2)c2c1CCc1c[nH]nc1-2 [Example 14, 8-[(N-Benzyloxycarbonyl-N-phenyl)amino]-4,5-dihydro-1H-thieno[3,4-g]indazole-6-carboxylic Acid] | 278 to 279 °C | – | – |
| NC(=O)c1sc(Nc2ccc(Cl)cc2)c2c1CCc1cnoc1-2 [Example 19, 8-(4-Chlorophenylamino)-4,5-dihydrothieno[3,4-g]-1,2-benzisoxazole-6-carboxamide] | 224 to 225 °C | – | – |
| Cn1cc2c(n1)-c1c(N(C(=O)OCc3ccccc3)c3ccccc3)sc(C(N)=O)c1CC2 [Example 22, 8-[(N-Benzyloxycarbonyl-N-phenyl)amino]-4,5-dihydro-2-methyl-2H-thieno[3,4-g]indazole-6-carboxamide] | 220 to 221 °C | – | – |
| NC(=O)c1sc(Nc2ccccc2)c2c1CCc1cn[nH]c1-2 [Example 29, 4,5-Dihydro-8-phenylamino-1H-thieno[3,4-g]indazole-6-carboxamide] | 233 to 234 °C | – | – |
| CNC(=O)c1sc(Nc2ccccc2)c2c1CCc1cnoc1-2 [Example 33, N-Methyl-4,5-dihydro-8-(phenylamino)thieno[3,4-g]-1,2-benzisoxazole-6-carboxamide] | 193 to 194 °C | – | – |
| CCCS(=O)(=O)c1sc(C(N)=O)c2c1-c1c(cnn1C)CC2 [Example 70, 4,5-Dihydro-1-methyl-8-n-propylsulfonyl-1H-thieno[3,4-g]indazole-6-carboxamide] | – | 47 | 0.25 ± 0.02** |
| CCOC(=O)c1sc(C)c2c1CCc1cnn(C)c1-2 [Example 73, 4,5-Dihydro-1,8-dimethyl-1H-thieno[3,4-g]indazole-6-carboxylic Acid Ethyl Ester] | 118 to 119 °C | – | – |
| CCCCc1sc(C(=O)OCC)c2c1-c1c(cnn1C)CC2 [Example 78, 8-n-Butyl-4,5-dihydro-1-methyl-1H-thieno[3,4-g]indazole-6-carboxylic Acid Ethyl Ester] | 80 to 81 °C | – | – |
| CCOC(=O)c1sc(C)c2c1CCc1cnn(Cc3ccccc3)c1-2 [Example 128, 1-Benzyl-4,5-dihydro-8-methyl-1H-thieno[3,4-g]indazole-6-carboxylic Acid Ethyl Ester] | 131 to 132 °C | – | – |
| CC(=O)c1sc(Oc2ccc3c(c2)OCO3)c2c1CCc1cnn(C)c1-2 [Example 251, 1-[4,5-Dihydro-8-(3,4-methylenedioxyphenoxy)-1-methyl-1H-thieno[3,4-g]indazol-6-yl]-1-ethanone] | – | 87 | 1.33 ± 0.13** |
| CCNC(=O)c1sc(Oc2ccc3c(c2)OCO3)c2c1CCc1cnn(C)c1-2 [Example 255, N-ethyl-4,5-dihydro-8-(3,4-methylenedioxyphenoxy)-1-methyl-1H-thieno[3,4-g]indazole-6-carboxamide] | – | 106 | 1.82 ± 0.06** |
| CCOC(=O)c1sc(OC)c2c1CCc1cnn(C)c1-2 [Example 263] | 82 to 84 °C | – | – |
| COc1sc(C(=O)O)c2c1-c1c(cnn1C)CC2 [Example 271] | 250 to 252 °C | – | – |
| COc1sc(C(N)=O)c2c1-c1c(cnn1C)CC2 [Example 279] | 154 to 156 °C | – | – |
| CC(C)OP(=O)(/C=C/c1ccc(Oc2sc(C(N)=O)c3c2-c2nn(C)cc2CC3)cc1)OC(C)C [Example 380, 8-{4-((E)-2-diisopropoxyphosphorylvinyl)phenoxy}-4,5-dihydro-2-methyl-2H-thieno[3,4-g]indazole-6-carboxamide] | 216 to 217 °C | – | – |
| Cn1ncc2c1-c1c(csc1S(C)(=O)=O)CC2 [Example 490, 1-Methyl-8-methylsulfonyl-4,5-dihydro-1H-thieno[3,4-g]indazole] | 192 to 193 °C | – | – |

Continued, in another order:

| melting point | Compound | ChM-I expression-enhancing activity [1] | Alkaline phosphatase activity (A405) [2] |
| --- | --- | --- | --- |
| 232 to 233 °C (dec.) | CN(C(=O)c1ccccc1)c1sc(C(=O)O)c2c1-c1oncc1CC2 [Example 11, 8-[(N-Benzoyl-N-methyl)amino]-4,5-dihydrothieno[3,4-g]-1,2-benzisoxazole-6-carboxylic Acid] | – | – |
| 232 to 233 °C (dec.) | O=C(O)c1sc(Nc2ccc(Cl)cc2)c2c1CCc1cnoc1-2 [Example 12, 8-(4-Chlorophenylamino)-4,5-dihydrothieno[3,4-g]-1,2-benzisoxazole-6-carboxylic Acid] | – | – |
| 211 to 212 °C (dec.) | O=C(O)c1sc(Nc2ccccc2)c2c1CCc1cnoc1-2 [Example 13, 4,5-Dihydro-8-phenylaminothieno[3,4-g]-1,2-benzisoxazole-6-carboxylic Acid] | – | – |
| 197 to 198 °C | CN(C(=O)c1ccccc1)c1sc(C(N)=O)c2c1-c1oncc1CC2 [Example 18, 8-[(N-Benzoyl-N-methyl)amino]-4,5-dihydrothieno[3,4-g]-1,2-benzisoxazole-6-carboxamide] | – | – |
| 240 to 241 °C | NC(=O)c1sc(N(C(=O)OCc2ccccc2)c2ccccc2)c2c1CCc1c[nH]nc1-2 [Example 21, 8-[(N-Benzyloxycarbonyl-N-phenyl)amino]-4,5-dihydro-1H-thieno[3,4-g]indazole-6-carboxamide] | – | – |
| 140 to 141 °C | Cn1ncc2c1-c1c(Nc3ccccc3)sc(C(N)=O)c1CC2 [Example 28, 4,5-Dihydro-1-methyl-8-phenylamino-1H-thieno[3,4-g]indazole-6-carboxamide] | – | – |
| 120 to 121 °C | CCOC(=O)c1sc(C)c2c1CCc1cnn(CC(F)(F)F)c1-2 [Example 127, 4,5-Dihydro-8-methyl-1-(2,2,2-trifluoroethyl)-1H-thieno[3,4-g]indazole-6-carboxylic Acid Ethyl Ester] | – | – |
| 89 to 90 °C | CCOC(=O)N1C2=C(CCc3csc(Oc4ccccc4)c32)CN1C [Example 143, 4,5-dihydro-2-methyl-8-phenoxy-2H-thieno[3,4-g]indazole-1-carboxylic Acid Ethyl Ester] | – | – |
| 210 to 211 °C | Cn1cc2c(n1)-c1c(Oc3ccc(C=O)cc3)sc(C(N)=O)c1CC2 [Example 380, 8-(4-Formylphenoxy)-4,5-dihydro-2-methyl-2H-thieno[3,4-g]indazole-6-carboxamide] | – | – |
